Test results as given in PubChem BioAssay (NCI).
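Grown in 96-well plates, cells were treated for 48 hours with each compound at five concentrations. Insufficient inhibition: endpoint recorded as highest concentration tested. GI50 marks 50% less growth. The concentration for full growth arrest is given as TGI.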

Columns and labels:
Assay in all cases: NCI tumour cell line growth inhibition, 48 h
A549 NSCLC = test system: A549 NSCLC
BT-549 breast = test system: BT-549 breast
DU-145 prostate = test system: DU-145 prostate
RXF 393 renal = test system: RXF 393 renal
SF-268 CNS = test system: SF-268 CNS
SF-295 CNS = test system: SF-295 CNS
SK-MEL-2 melanoma = test system: SK-MEL-2 melanoma
SNB-19 CNS = test system: SNB-19 CNS
SW-620 colon = test system: SW-620 colon
MALME-3M melanoma = test system: MALME-3M melanoma

Compound | TGI (A549 NSCLC) [µM] | TGI (BT-549 breast) [µM] | TGI (DU-145 prostate) [µM] | TGI (RXF 393 renal) [µM] | TGI (SF-268 CNS) [µM] | TGI (SF-295 CNS) [µM] | TGI (SK-MEL-2 melanoma) [µM] | TGI (SNB-19 CNS) [µM] | TGI (SW-620 colon) [µM] | GI50 (A549 NSCLC) [µM] | GI50 (DU-145 prostate) [µM] | GI50 (MALME-3M melanoma) [µM] | TGI (MALME-3M melanoma) [µM] | GI50 (SF-268 CNS) [µM] | GI50 (SF-295 CNS) [µM] | GI50 (SK-MEL-2 melanoma) [µM] | GI50 (SNB-19 CNS) [µM] | GI50 (SW-620 colon) [µM] | GI50 (BT-549 breast) [µM] | GI50 (RXF 393 renal) [µM]
COC1CCC(O)C(/C=C/[N+](=O)[O-])C1 (configuration not stated) | 42.9 | 8.49 | 15.2 | 2.91 | 15 | 23.9 | 23.1 | 23.6 | > 100 |  |  |  |  |  |  |  |  |  |  | 
C=CC(C=O)C1(O)CCOC(=O)/C1=C\N (configuration not stated) | > 100 |  | > 100 |  | > 100 | > 100 | > 100 | > 100 | > 100 | > 100 | > 100 | > 100 | > 100 | > 100 | > 100 | > 100 | > 100 | > 100 |  | 
c1ccc(-c2cc(C3CO3)c3ccccc3n2)cc1 (configuration not stated) | 40.4 | 43.6 | 34.7 | 28.3 | 47.3 | > 100 | 34.6 | 95.5 | 71.3 |  |  |  |  |  |  |  |  |  |  | 
Cc1cc(=O)[nH]o1 | > 100 | > 100 |  | > 100 | > 100 | > 100 | > 100 | > 100 | > 100 |  |  |  |  |  |  |  |  |  |  | 
O=C1OCCC1C(O)C1c2ccccc2-c2ccccc21 (configuration not stated) | > 100 |  |  |  | > 100 | > 100 | > 100 | > 100 | > 100 |  |  |  | > 100 |  |  |  |  |  |  | 
OCC1OC(OCC(O)C(O)C(O)C(/C=N/Nc2ccccc2)=N/Nc2ccccc2)C(O)C(O)C1O (configuration not stated) | > 100 | > 100 | > 100 |  | > 100 | > 100 |  | > 100 | > 100 |  |  |  | > 100 |  |  |  |  |  |  | 
CN=C(NC#N)NCCSCc1nc[nH]c1C | > 100 |  | > 100 | > 100 | > 100 | > 100 | > 100 | > 100 | > 100 |  |  |  | > 100 |  |  |  |  |  |  | 
O=C(CSC(c1ccccc1)c1ccccc1)N/N=C/c1cccc(Cl)c1 | 40.1 | 32.2 | 30 | 29.5 | 35 | 44.8 | 30.1 |  | 29.2 | 15.1 | 16.4 | 13 | 26.1 | 17.5 | 22.9 | 15.7 |  | 15 | 17.9 | 13.9
C=CC[P+](c1ccccc1)(c1ccccc1)c1ccccc1 | > 100 | 94.5 | > 100 | > 100 | > 100 | 28.2 | 16.4 | > 100 | > 100 | 4.54 | 7.33 |  |  | 5.46 | 4.58 | 3.36 | 4.1 | 5.64 | 4.05 | 27.6
